The values that follow come from patent US20130095512A1, “DEVICE FOR SORTING, CLASSIFYING, AND ASSAYING PARTITION BEHAVIOR OF CELL MEMBRANE BIOMOLECULES AND METHODS BASED THEREON” (Cornell University, priority 2010, published 2013).

What all share (format): physicochemical
Series [1] in a line: Lipid diffusion measurements by fluorescence recovery after photobleaching (FRAP) in supported lipid bilayers. The method, then:
Lipid Diffusion Measurements. Diffusion coefficients of all biomolecule targets in each phase were determined by fluorescence recovery after photobleaching (FRAP). To measure the diffusion coefficient and mobile fraction of the biomolecule in a supported bilayer, liposomes of the same composition used in experiments were prepared with 0.1% of either BODIPY DHPE or GM1. 0.5 mg/ml liposomes were incubated in a PDMS well attached to a piranha cleaned slide. Lipid vesicles were allowed to incubate for 5 minutes, before being rinsed with buffer for one minute. In the case of the POPC-rich phase bilayer, the entire process is at room temperature. In the case of the raft phase bilayer, the prepared vesicle solutions were heated to 65° C. (a temperature above the miscibility transition temperature of the lipid mixture). The warm vesicle solutions were added to wells heated to 65° C. and were later rinsed with the buffer at 65° C. Following the formation of the raft phase bilayer, the heated sample was gently cooled down to room temperature prior measuring the diffusion coefficient.
To aid in focusing on the plane of the bilayer on the microscope, the bilayer was scratched with a dissection tool to remove a thin line of bilayer. Following the scratching step, the bilayer was rinsed again for one minute with buffer to remove any lipids in the bulk that were removed by scratching. A 20 μm diameter spot in the supported lipid bilayer was bleached with a laser for 200 ms. The recovery of the photobleached spot was recorded for 10 minutes for the POPC-rich phase sample and one hour for the raft phase sample. The fluorescence intensity of the bleached spot was determined after background subtraction and normalization for each image. The recovery data was fit using the method of Soumpasis (Zheng Y Z, Foster L J. Biochemical and Proteomic Approaches for the Study of Membrane Microdomains. Proteomics. 2009; 72:12-22). The diffusion coefficient, D, was then calculated using the following equation: D=w^2/4t1/2, where w is the full width at half-maximum of the Gaussian profile of the focused beam. The average diffusion coefficient and mobile fractions were determined from three separate samples of each sample and are listed in Table 2. These values are in line with numerous reports of lipid diffusion in supported bilayers.

Series [2] can be described thus: Partitioning kinetics of membrane biomolecules in patterned two-phase coexistent supported lipid bilayers in a microfluidic channel (BPD). The note with it: for K (eq) partition coefficient: concentration in raft phase over POPC-rich phase from fluorescence intensity after equilibrating 2 hrs; for k+ (association rate constant): from POPC-rich phase (70/20/10 POPC/PSM/Chol) to raft phase, first order, initial slope of NR-α plot; for k− (dissociation rate constant): from raft phase to POPC-rich phase, reversed flow after 2 hrs equilibration; for K (=k+/k−) partition coefficient: ratio of association/dissociation kinetic parameters; for partitioning between raft phase and POPC-rich phase at equilibrium: flow stopped, equilibrated for 2 hrs. The text has this: Preparation of patterned two-phase coexistent lipid bilayers in a microfluidic device. Supported lipid bilayers (SLBs) are commonly formed by the rupture and self-assembly of large unilamellar lipid vesicles in solution onto glass (Brian, A. A.; McConnell, H. M. Proc. Natl. Acad. Sci. USA 1984, 81, 6159; Johnson, J. M.; Ha, T.; Chu, S.; Boxer, S. G. Biophysical Journal 2002, 83, 3371) or other oxidized supports (Richter, R. P.; Borat, R.; Brisson, A. R. Langmuir 2006, 22, 3497), as illustrated in FIG. 17a. A bilayer is formed during laminar flow conditions instead of under stagnant incubation. Laminar flow is an advantage for patterning heterogeneous bilayers in microfluidic channels because reagents follow streamlines with minimal mixing (Kam, L.; Boxer, S. G. Journal of the American Chemical Society 2000, 122, 12901). Thus, lipid vesicles of different compositions can be sent through the channel on different streamlines and upon rupture will form contiguous, parallel bilayers of different compositions with stable interfaces, if the compositions are chosen so that they are phase stable.
Formation of contiguous patterned membrane and loading and transport of membrane-bound biomolecules. […] A contiguous lipid membrane is formed with POPC-rich phase (70/20/10 molar ratio of POPC/PSM/Chol), raft phase (60/40 molar ratio of PSM/Chol), and the membrane loaded with 1 mol % of Alexa-594 head-labeled GM1 and 1 mol % of head-labeled BODIPY-DHPE doped in the POPC-rich phase.
Partitioning kinetic measurements by monitoring species' concentrations in the raft phase with time. […] The partitioning assay was carried out in three stages: association stage, equilibrium stage, and dissociation stage (FIGS. 13a-c). The experimental procedure and analyses are somewhat analogous to the measurement of adsorption/desorption binding kinetics by surface plasmon resonance (SPR) (Wegner, G. J.; Wark, A. W.; Lee, H. J.; Codner, E.; Saeki, T.; Fang, S.; Corn, R. M. Analytical Chemistry 2004, 76, 5677), except here there is a 2-D planar geometry and observing association/dissociation kinetics of membrane-bound biomolecules to/from a lipid membrane phase along an interface. To obtain association kinetics from POPC-rich phase to raft phase, target species in the POPC-rich phase were brought to a pristine raft phase and the amount entering into the raft phase in the control volume was monitored with time (FIG. 13a, stage 1). After most of the species initially loaded in the channel entered into the main partitioning channel, the next step was to stop the convective flow and wait until the system equilibrated (FIG. 13a, stage 2). Equilibration was confirmed when the concentration profile no longer changed across the channel. Finally, to obtain dissociation kinetics, the net amount of species leaving the raft phase was monitored when the hydrodynamic flow was reversed and fresh POPC-rich phase membrane could be monitored for the re-association of molecules now moving from the raft phase back into the POPC-rich phase (FIG. 13a, stage 3). Three different molecules were tested: Alex594-head-labeled GM1, BODIPY-tail-labeled GM1, and head-labeled BODIPY-DHPE.
Theory of partitioning kinetic analyses. The association/dissociation kinetics of fluorescently-labeled species was analyzed into/from the raft phase using a mass-balance approach. A control volume used for the mass balance is illustrated in FIG. 14. The accumulation of species in the raft phase over time can be represented as:
Association kinetic analysis. To obtain the association kinetic information from the POPC-rich phase to the raft phase, the experiment was operated in such a way so that only the association term, r+, is important and the dissociation term and the convective flow rate terms can be neglected in Equation 1. At the beginning of the experiment, a hydrodynamic force was provided to move the species into the control volume (the white box in FIG. 14). […]

Series [3] in a line: Stamped patterned bilayers, electric field-induced migration and partitioning into raft regions. The note with it: stamped raft regions in fluid phase bilayer, FIG. 3. The text has this: In one embodiment, the separation bilayer is patterned with multiple phases (raft and non-raft) that interact with species differentially to effect a separation analogous to a chromatographic separation strategy (FIG. 3). Here differently partitioning behavior serves to change the mobility of one species relative to the other such that they become separated. FIG. 3 illustrates how patterned bilayers of a BPD can be made and used for separation purposes. In one embodiment of the method for making a BPD, the steps can comprise: (A) Forming a bilayer via vesicle fusion of one composition, then (B) selectively remove by stamping regions where the second phase is desired. Back filling with the second vesicles (B). Stamping out a thin section of bilayer where a third vesicle formulation fuses; these vesicles contain the species to be separated (denoted by the mixture of light and dark circles arranged in a thin rectangle). An electric field can then be applied to induce the mixed charged species to migrate through the bilayer and partition as they sample the different regions of the bilayer. […] The GM1 is labeled with Alexa-594, which makes it, and the rafts in which they are located, appear bright.

Series [4] in a line: Partitioning in the BPD on CTB binding. The note with it: CTB binds to GM1. The text has this: βCD-mediated efflux is used to disrupt raft microdomains and stimulate a change in GM1 partitioning. Changes in partitioning of both GM1 and PLAP can also be induced by binding to CTB and/or antibodies (Kahya N, Brown D A, Schwille P. Raft Partitioning and Dynamic Behavior of Human Placental Alkaline Phosphatase in Giant Unilamellar Vesicles. Biochemistry. 2005; 44:7479-89). Antibody binding is known to cause several-fold enrichment in the raft phase of both targets and detection will be straightforward using fluorescence labels or conjugates.

Where [5] appears, read: POPC-rich phase (70/20/10 POPC/PSM/Chol).

Consider “BODIPY®FL C5-ganglioside GM1 [Tail-labeled GM1]”, for which the Diffusion coefficient in series [1] (setting [5]) turned out to be 0.82 μm^2/s. In series [1] (Raft phase (60/40 PSM/Chol)), this compound gave a Diffusion coefficient of 0.08 μm^2/s. Also, in series [2], the “K (eq) partition coefficient” value came to 0.75, the “k+ (association rate constant)” value is given as 0.64 ± 0.07 μm/min, the “k− (dissociation rate constant)” value stood at 0.72 ± 0.05 μm/min and the “K (=k+/k−) partition coefficient” value is 0.89.
For `CCCCCCCCCCCCCCCC(=O)OC[C@H](COP(=O)(O)OCCNC(=O)CCc1ccc2n1[B-](F)(F)[N+]1=C(C)C=C(C)C1=C2)OC(=O)CCCCCCCCCCCCCCC.CCN(CC)CC` [Head-labeled BODIPY-DHPE, N-(4,4-difluoro-5,7-dimethyl-4-bora-3a,4a-diaza-s-indacene-3-propionyl)-1,2-dihexadecanoyl-sn-glycero-3-phosphoethanolamine, triethylammonium salt], the Diffusion coefficient in series [1] (setting [5]) stood at 0.63 μm^2/s. Also, the Diffusion coefficient in series [1] (Raft phase (60/40 PSM/Chol)) amounted to 0.05 μm^2/s. Besides, in series [3], the “partitioning into raft regions” value is on record as “exclusion of BODIPY DHPE lipids from rafts regions”. Further, in series [2], the “K (eq) partition coefficient” value came out at 0.6; the “partitioning between raft phase and POPC-rich phase at equilibrium” value is “most of BODIPY-DHPE remains in the POPC-rich phase”; the “k+ (association rate constant)” value is 0.57 ± 0.08 μm/min; the “k− (dissociation rate constant)” value was determined as 0.98 ± 0.04 μm/min. Moreover, the “K (=k+/k−) partition coefficient” value in series [2] amounted to 0.58.
As to “bovine brain asialoganglioside-GM1 labeled with Alexa Fluor® 594 hydrazide [Head-labeled GM1]”, in series [1] (POPC-rich phase), the Diffusion coefficient worked out at 0.77 μm^2/sec. The compound also yielded a Diffusion coefficient in series [1] (setting [5]) of 0.77 μm^2/s. The compound further yielded a Diffusion coefficient in series [1] (Raft phase (60/40 PSM/Chol)) of 0.06 μm^2/s. In series [1] (diffusion coefficient/distance, 1 μm away in the POPC-rich phase, rough estimate), the “rate for a molecule to diffuse to the interface” value is given as 0.77 μm/sec. This compound also gave a Diffusion coefficient in series [1] (raft phase) of 0.06 μm^2/sec. In addition, the “diffusion rate from the interface into the middle of the raft patch” value in series [1] (~100 nm, raft phase, estimate) was 0.6 μm/sec. The “enrichment in the raft phase on CTB binding” value in series [4] is “enrichment was observed”. Further, the “partitioning into raft regions” value in series [3] is “preferential partitioning of GM1 lipids into raft regions”. In series [2], the “K (eq) partition coefficient” value is 1.96; the “partitioning between raft phase and POPC-rich phase at equilibrium” value is reported as “Most of GM1 partitions to the raft phase”; the “k+ (association rate constant)” value was 1.53 ± 0.03 μm/min; the “k− (dissociation rate constant)” value is listed as 0.85 ± 0.03 μm/min. Also, in series [2], the “K (=k+/k−) partition coefficient” value was found to be 1.8. This compound yielded a rate of the molecule to pass across the interface in series [2] (from Table 1) of around 0.025 µm/s.
